# Publication PMC3328449, “Inhibition of Diacylglycerol–Sensitive TRPC Channels by Synthetic and Natural Steroids” (PLoS ONE, 2012)
# “And” between values parts separate entries of the source, which are not always exact repeats. Equal entries are not always repeated.
# Target: T1, hTRPC6 (Homo sapiens, UniProt Q9Y210)
# T1 construct: expressed in transfected cells
# T1 sequence (Q9Y210 1-931): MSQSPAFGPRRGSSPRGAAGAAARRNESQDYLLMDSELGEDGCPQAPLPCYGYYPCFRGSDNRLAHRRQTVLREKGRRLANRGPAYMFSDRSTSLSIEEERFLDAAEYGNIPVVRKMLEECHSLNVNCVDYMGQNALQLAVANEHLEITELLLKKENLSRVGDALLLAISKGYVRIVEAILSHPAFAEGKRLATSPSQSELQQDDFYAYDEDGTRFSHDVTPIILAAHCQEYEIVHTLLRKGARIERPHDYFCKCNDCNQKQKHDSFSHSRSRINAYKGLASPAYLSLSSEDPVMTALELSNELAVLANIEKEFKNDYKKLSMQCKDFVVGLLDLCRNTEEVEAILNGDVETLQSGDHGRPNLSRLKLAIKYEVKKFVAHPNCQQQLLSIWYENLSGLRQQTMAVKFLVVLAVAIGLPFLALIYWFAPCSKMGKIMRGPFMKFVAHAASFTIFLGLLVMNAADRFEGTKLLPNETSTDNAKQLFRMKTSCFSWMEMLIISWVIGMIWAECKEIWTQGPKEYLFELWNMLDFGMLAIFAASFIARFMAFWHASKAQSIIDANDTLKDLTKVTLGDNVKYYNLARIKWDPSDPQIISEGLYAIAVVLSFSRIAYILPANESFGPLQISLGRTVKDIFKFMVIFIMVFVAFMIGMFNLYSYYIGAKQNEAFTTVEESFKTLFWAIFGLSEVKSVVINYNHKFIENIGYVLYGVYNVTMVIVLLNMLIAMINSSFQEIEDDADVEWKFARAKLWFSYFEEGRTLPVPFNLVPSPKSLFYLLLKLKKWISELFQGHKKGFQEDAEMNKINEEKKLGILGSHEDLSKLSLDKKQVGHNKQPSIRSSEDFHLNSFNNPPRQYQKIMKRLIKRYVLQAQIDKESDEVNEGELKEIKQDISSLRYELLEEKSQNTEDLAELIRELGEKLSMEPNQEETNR
# Experiment: OAG-induced Ca2+ entry, fluo-4 fluorometric imaging plate reader, TRPC6 HEK-FITR cells
# Format: cell-based
# Conditions: for IC50: TRPC6 HEK-FITR cells, fluo-4, area under the curve, 10 min pre-incubation, read-out: IC50, inhibition of OAG-induced Ca2+ entry via TRPC6; for Hill slope n, inhibition of TRPC6-mediated Ca2+ entry: fit to Hill model
# Experimental: Cells were grown at 37°C in a humidified atmosphere (5% or 7% CO2) under standard cell culture conditions. Stable human embryonic kidney (HEK) cell lines expressing recombinant mTRPC4ß (GenBank accession number AAC05178); mTRPC5 (GenBank accession number NM_009428) or hTRPC6 (GenBank accession number AF080394) under the control of a tetracycline-inducible promoter were generated using the Flp-In T-Rex (FITR) system (Invitrogen, Karlsruhe, Germany). TRPC4/5/6 HEK-FITR cells were maintained in Dulbecco's modified eagle medium (DMEM, with glutaMAX I, 4.5 g/l glucose and […] sodium pyruvate) supplemented with 10% (v/v) fetal bovine serum (Biochrom, Berlin, Germany), 1 mM glutamine, 1 mM MEM sodium pyruvate, 40 μg/ml hygromycin (50 μg/ml for mTRPC5 HEK-FITR cells), and 15 μg/ml blasticidine HCl. Channel expression was induced by supplementing the growth medium for 18-24 h with 1 μg/ml doxycycline. Cells grown to an almost confluent monolayer on black poly-D-lysine coated 96-well plates (Greiner, Frickenhausen, Germany) were washed with standard extracellular solution (140 mM NaCl, 1 mM MgCl2, 5.4 mM KCl, 2 mM CaCl2, 10 mM HEPES, 10 mM glucose, pH 7.35) and stained (30 min, room temperature) with dye solution (2 μM fluo-4 AM, 0.02% pluronic F127, 0.1% bovine serum albumin in standard extracellular solution). Cells were washed and either incubated with standard extracellular solution only or with different concentrations of test compounds for 10 min. Fluo-4 fluorescence was excited at 488 nm with an argon laser and measured using a fluorometric imaging plate reader (Molecular Devices, Sunnyvale, USA). All fluorometric measurements were performed at room temperature. […] Baseline fluorescence in non-OAG-stimulated cells and OAG-stimulated Ca^2+ influx into control cells not treated with inhibitors were defined as 0% and 100% influx, respectively. For statistical analysis, analysis of variance was performed with Origin 6.0 software (Microcal Software Inc., Northampton, USA). […] Averaged data is expressed as means ± SEM.
"Effect on TRPC6-mediated Ca2+ entry (30 µM pre-incubation, OAG-induced)",IC50,"Hill slope n, inhibition of TRPC6-mediated Ca2+ entry",SMILES
significantly reduced,3 to 5 µM and 5.2 µM,0.97,C#C[C@]1(OC(C)=O)CC[C@H]2[C@@H]3CCC4=CC(=NO)CC[C@@H]4[C@H]3CC[C@@]21CC (mixture of isomers) [norgestimate]
,18 µM,1.2,CC(=O)[C@H]1CC[C@H]2[C@@H]3CCC4=CC(=O)CC[C@]4(C)[C@H]3CC[C@]12C [progesterone]
